# Measured values published in US20180327367A1, “MACROCYCLIC BROAD SPECTRUM ANTIBIOTICS” (priority 2015, published 2018).
# Where two headings read alike, the source gives them in different places.
# What was measured:
# [1] = target: T1, SpsB (Staphylococcus aureus signal peptidase) (Staphylococcus aureus, UniProt P0A070); assay: cell-based; format: biochemical; details: SpsB IC50, whole-cell S. aureus (USA300 background, overexpressing SpsB) as SpsB source; fluorogenic peptide substrate, kinetic read 30 min
# T1 construct: This assay uses a suspension of Staphylococcus aureus cells as a source of SpsB instead of recombinant SpsB protein; endogenous in cells; host or cells: S. aureus, USA300 background, overexpressing SpsB (whole-cell suspension from frozen pellets)
# Description: A kinetic fluorogenic enzyme activity assay was used to assess inhibition of SpsB (Staphylococcus aureus signal peptidase) activity and IC50s were determined. This assay uses a suspension of Staphylococcus aureus cells as a source of SpsB instead of recombinant SpsB protein.
# Cell preparation: Luria broth (LB) was inoculated with S. aureus (USA300 background, overexpressing SpsB) and shaken at 37° C. until an OD600 nm of 1.5-2.0 was reached (˜4 hr). The culture was then diluted to an OD600 nm of 1.0 with LB, aliquoted and centrifuged at 10,000×g for 2 mins. The supernatant was removed and the pellet was resuspended in phosphate buffer (1×PBS, 12.5 mg/L MgCl2, 25 mg/L CaCl2, 0.1% Tween-80) to an OD600 nm of 0.5, then centrifuged again at 10,000x g for 2 mins. The supernatant was removed and the pellets were frozen at −20° C.
# Test compounds were prepared in DMSO at a concentration of 10 mg/mL. These compound stocks were diluted into DMSO to a concentration of 25 μg/mL and serial 3-fold dilutions were made in DMSO, for a total of 11 compound concentrations. 20 nL of each compound solution was pre-spotted into a white 384-well plate (50 μL/well polypropylene, Nunc) using acoustic fluid transfer (Echo).
# Frozen S. aureus pellets were resuspended in assay buffer (1x PBS, 12.5 mg/L MgCl2, 25 mg/L CaCl2, 0.1% Tween-80) to an OD600 nm of 0.05, then mixed 1:1 (v/v) with 20 μM substrate ((Dabcyl)βAla-KPAKAAE(Edans)) in assay buffer, and this solution was added (20 μL/well) to the 384-well plate that had been pre-spotted with compound. Fluorescence intensity was then immediately read kinetically for 30 minutes with 2 minute read intervals to monitor cleavage of the internally quenched peptide substrate (excitation wavelength=340 nm, emission wavelength=490 nm, Molecular Devices Spectramax M5). Reaction rate (slope) was plotted against inhibitor concentration to derive the IC50.
# [2] = system: Methicillin Resistant Staphylococcus aureus strain USA 300, NRS384; assay: Minimum inhibitory concentration, broth micro-dilution (CLSI), S. aureus; format: cell-based; details: 35° C., 22 hours; for MIC: Staphylococcus aureus, MRSA / NRS 384 / USA300, 22 h
# Outline: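 CLSI broth microdilution in cation-adjusted Mueller Hinton Broth with 0.002% Tween-80; inoculum final OD600 0.0005, 22 hours at 35° C. Ten 2-fold dilutions starting at 4 μg/mL (protocol 2) or 0.5 μg/mL (protocol 3).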
# [3] = system: Escherichia coli MC4100 harboring the IMP4213 (E. coli IMP); assay: microbe, parasite or virus in culture; format: cell-based; details: 35° C., 22 hours; for MIC (μg/mL) E. coli IMP: E. coli MC4100 IMP4213, increased outer-membrane permeability; for MIC: Escherichia coli, 22 h, read-out: MIC (μg/mL) E. coli IMP, E. coli MC4100 IMP4213, increased outer-membrane permeability
# Outline: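 Top conc 4 μg/mL (protocol 2) or 0.5 μg/mL (protocol 3), 2-fold series, 10 points. Final OD600 0.0005; 22 h, 35° C. IMP4213 = permeable outer membrane.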
# [4] = system: Escherichia coli ATCC 25922; assay: Minimum inhibitory concentration, broth micro-dilution (CLSI), E. coli; format: cell-based; details: 35° C., 22 hours; for MIC: Escherichia coli, ATCC25922, 22 h
# [5] = read-out: MIC (μg/mL) S. aureus, MRSA USA 300 NRS384
# [6] = read-out: MIC (μg/mL) E. coli, E. coli ATCC 25922
# [7] = MRSA USA 300 NRS384, read-out: MIC (μg/mL) S. aureus
# [8] = E. coli ATCC 25922, read-out: MIC (μg/mL) E. coli
# T1 sequence (P0A070 whole entry): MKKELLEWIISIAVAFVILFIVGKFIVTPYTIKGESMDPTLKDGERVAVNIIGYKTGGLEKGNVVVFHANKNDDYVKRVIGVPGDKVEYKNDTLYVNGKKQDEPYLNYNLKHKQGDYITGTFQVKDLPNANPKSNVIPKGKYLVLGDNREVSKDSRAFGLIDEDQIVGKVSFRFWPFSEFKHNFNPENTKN
Compound,IC50 [1],MIC (μg/mL) S. aureus ([2]; MRSA USA 300 NRS384),MIC (μg/mL) E. coli IMP [3],MIC (μg/mL) E. coli ([4]; E. coli ATCC 25922),"MIC [2, 5]",MIC [3],"MIC [4, 6]","MIC [2, 7]","MIC [4, 8]"
Cc1cc(C2CC2c2ccccc2)ccc1C(=O)N[C@@H](CCN)C(=O)N(C)[C@@H]1C(=O)N[C@@H](C)C(=O)N[C@H](C(=O)NCC#N)Cc2ccc(OCCN)c(c2)-c2cc1ccc2OCCN (mixture of isomers) [Compound 440],0.81 nM,0.19 µg/mL,0.063 µg/mL,8 µg/mL,,,,,
C[C@@H]1NC(=O)[C@@H](N(C)C(=O)[C@H](CCCCN)NC(=O)c2ccc(-c3ccc(Cl)cc3)cc2)c2ccc(OCC(O)CN)c(c2)-c2cc(ccc2O)C[C@@H](C(=O)NCC#N)NC1=O (mixture of isomers) [Compound 514],2 nM,,,,0.25 µg/mL,0.19 µg/mL,32 µg/mL,,
"CCCCCCCCCC(=O)N[C@@H](C(=O)N[C@@H](CCN)C(=O)N(C)[C@@H]1C(=O)N[C@@H](C)C(=O)N[C@H](C(=O)NCC#N)Cc2ccc(OCCN)c(c2)-c2cc1ccc2OCCN)C(C)O (single isomer, unassigned) [Compound 357-P2]",1.1 nM,,,,0.094 µg/mL,0.094 µg/mL,12 µg/mL,,
"CCCCCCCCC(O)C(=O)NC(CO)C(=O)N(C)C1C(=O)NC(C)C(=O)NC(C(=O)NCC#N)Cc2ccc(OCCN)c(c2)-c2cc1ccc2OCCN (single isomer, unassigned) [Compound 393-P1]",5.9 nM,,,,2 µg/mL,1 µg/mL,> 64 µg/mL,,
"CCCCCCCCC(O)C(=O)NC(CO)C(=O)N(C)C1C(=O)NC(C)C(=O)NC(C(=O)NCC#N)Cc2ccc(OCCN)c(c2)-c2cc1ccc2OCCN (single isomer, unassigned) [Compound 393-P2]",4.7 nM,1 µg/mL,2 µg/mL,>64 µg/mL,,,,,
"CCCCCCCCC(F)C(=O)NC(CO)C(=O)N(C)C1C(=O)NC(C)C(=O)NC(C(=O)NCC#N)Cc2ccc(OCCN)c(c2)-c2cc1ccc2OCCN (single isomer, unassigned) [Compound 394-P1]",3.9 nM,,,,1 µg/mL,0.25 µg/mL,> 64 µg/mL,,
"CCCCCCCCC(F)C(=O)NC(CO)C(=O)N(C)C1C(=O)NC(C)C(=O)NC(C(=O)NCC#N)Cc2ccc(OCCN)c(c2)-c2cc1ccc2OCCN (single isomer, unassigned) [Compound 394-P2]",2.7 nM,0.5 µg/mL,0.38 µg/mL,64 µg/mL,,,,,
CCCCCCCCCCNCCC(=O)N[C@@H](CCCCN)C(=O)N(C)[C@@H]1C(=O)N[C@@H](C)C(=O)N[C@H](C(=O)NCC#N)Cc2ccc(OCCN)c(c2)-c2cc1ccc2OCCN [Compound 101],0.72 nM,,,,,1.7 µg/mL,,0.094 µg/mL,48 µg/mL
CCCCCCCCCCCCC(=O)N[C@@H](CCN)C(=O)N(C)[C@@H]1C(=O)N[C@@H](C)C(=O)N[C@H](C(=O)NCC#N)Cc2ccc(OCCN)c(c2)-c2cc1ccc2OCCN [Compound 102],0.52 nM,,,,,0.0078 µg/mL,,0.023 µg/mL,0.25 µg/mL
CCCCCCCCCCCC(=O)N[C@@H](CCN)C(=O)N(C)[C@@H]1C(=O)N[C@@H](C)C(=O)N[C@H](C(=O)NCC#N)Cc2ccc(OCCN)c(c2)-c2cc1ccc2OCCN [Compound 103],0.57 nM,,,,,0.0078 µg/mL,,0.023 µg/mL,1 µg/mL
CCCCCCCCCCC(=O)N[C@@H](CCN)C(=O)N(C)[C@@H]1C(=O)N[C@@H](C)C(=O)N[C@H](C(=O)NCC#N)Cc2ccc(OCCN)c(c2)-c2cc1ccc2OCCN [Compound 104],0.5 nM,,,,,0.023 µg/mL,,0.047 µg/mL,4 µg/mL
CCCCCc1ncc(C(=O)N[C@@H](CCN)C(=O)N(C)[C@@H]2C(=O)N[C@@H](C)C(=O)N[C@H](C(=O)NCC#N)Cc3ccc(OCCN)c(c3)-c3cc2ccc3OCCN)c(C)n1 [Compound 200],2.8 nM,,,,,,,1 µg/mL,4 µg/mL
Cc1cc(Oc2ccc(C(C)(C)C)cc2)ccc1C(=O)N[C@@H](CCN)C(=O)N(C)[C@@H]1C(=O)N[C@@H](C)C(=O)N[C@H](C(=O)NCC#N)Cc2ccc(OCCN)c(c2)-c2cc1ccc2OCCN [Compound 302],0.79 nM,,,,0.031 µg/mL,,0.25 µg/mL,,
C[C@@H]1NC(=O)[C@@H](N(C)C(=O)[C@H](CCCCN)NC(=O)c2ccc(-c3ccc(Cl)cc3)cc2)c2ccc(OCCN)c(c2)-c2cc(ccc2O)C[C@@H](C(=O)NCC#N)NC1=O [Compound 318],0.8 nM,,,,,,,,
CCCCc1ccc(-c2ccc(C(=O)N[C@@H](CN)C(=O)N(C)[C@@H]3C(=O)N[C@@H](C)C(=O)N[C@H](C(=O)N[C@@H](C)C#N)Cc4ccc(OCCN)c(c4)-c4cc3ccc4OCCN)cc2)cc1 [Compound 340],0.69 nM,,,,,< 0.063 µg/mL,,,0.75 µg/mL
CCCCCCCCc1ccc(C(=O)N[C@@H](CCCN)C(=O)N(C)[C@@H]2C(=O)N[C@@H](C)C(=O)N[C@H](C(=O)NCC#N)Cc3ccc(OC)c(c3)-c3cc2ccc3OC)cc1 [Compound 471],10 nM,,,,,< 0.063 µg/mL,,,48 µg/mL
CCCCCCc1ccc(C(=O)N[C@@H](CCN)C(=O)N(C)[C@@H]2C(=O)N[C@@H](C)C(=O)N[C@H](C(=O)NCC#N)Cc3ccc(OCCN)c(c3)-c3cc2ccc3OCCN)c(OCCN)c1 [Compound 519],,,,,,0.25 µg/mL,,0.13 µg/mL,16 µg/mL
CCCCCCCCCC(=O)N[C@H](CO)C(=O)N1CC(N)C[C@H]1C(=O)N(C)[C@@H]1C(=O)N[C@@H](C)C(=O)N[C@H](C(=O)NCC#N)Cc2ccc(OCCN)c(c2)-c2cc1ccc2OCCN (stereo partly drawn) [Compound 524-1],,,,,0.22 µg/mL,0.19 µg/mL,16 µg/mL,,
CCCCCCCCCCNCC(CO)C(=O)N(C)[C@@H]1C(=O)N[C@@H](C)C(=O)N[C@H](C(=O)NCC#N)Cc2ccc(OCCN)c(c2)-c2cc1ccc2OCCN (stereo partly drawn) [Compound 525],,,,,,> 4 µg/mL,,1.5 µg/mL,> 64 µg/mL
CCCCCCc1ccc(C(=O)N2CCC(N)C[C@H]2C(=O)N(C)[C@@H]2C(=O)N[C@@H](C)C(=O)N[C@H](C(=O)NCC#N)Cc3ccc(OCCN)c(c3)-c3cc2ccc3OCCN)c(C)c1 (stereo partly drawn) [Compound 526-3],,,,,,0.031 µg/mL,,0.063 µg/mL,3 µg/mL
CCCCCCOc1ccc(N2CCN(c3ccc(C(=O)N[C@@H](CCN)C(=O)N(C)[C@@H]4C(=O)N[C@@H](C)C(=O)N[C@H](C(=O)NCC#N)Cc5ccc(OCCN)c(c5)-c5cc4ccc5OCCN)cc3)CC2)cc1 [Compound 527],,,,,,0.063 µg/mL,,0.063 µg/mL,4 µg/mL
